In brackets after ≈: the same amount, converted by molar mass. Like-named read-outs stand apart in the source and are kept apart here.
Tests used:
NFKB2 = assay type: in vivo, rats; conditions: Mean ± SE
Protocol: (§1) Rats were divided randomly into equal fifteen groups, each containing 9 rats as follows: • Group 1: Rats were kept on standard laboratory chow and water ad libitum to serve as a control. • Group 2: Rats have injected IP with sterile distilled water (4ml/kg) daily for one week to serve as a control. • Group 3: Rats have injected IP with DEMSO (dimethyl sulfoxide) (4 ml/kg) daily for one week to serve as a control. • Group 4: Rats have injected IP with 4h (1.9 mg/kg) daily for one week. • Group 5: Rats have injected IP with 4h (3.8 mg/kg) daily for one week. • Group 6: Rats have injected IP with 4i (1.9 mg/kg) daily for one week. • Group 7: Rats have injected IP with 4i (3.8 mg/kg) daily for one week. • Group 8: Rats were infected by a single IM injection of S. aureus strain [1.0 ml) 1 × 10^7) colony-forming units]. • Group 9: Rats have injected IP with 4h (1.9 mg/kg) daily for one week on the 7th day after induction of infection by a single IM injection of S. aureus strain [1.0 ml (1 × 10^7) colony-forming units. • Group 10: Rats have injected IP with 4h (3.8 mg/kg) daily for one week on the 7th day after induction of infection by a single IM injection of S. aureus strain [1.0 ml (1 × 10^7) colony-forming units]. • Group 11: Rats were infected by a single IM injection of S. typhi strain [1.0 ml (1 × 10^7) colony forming units). • Group 12: Rats have injected IP with 4h (1.9 mg/kg) daily for one week. on the 7th day after induction of infection by a single IM injection of S. typhi strain [1.0 ml (1 × 10^7) colony-forming units]. • Group 13: Rats have injected IP with 4h (3.8 mg/kg) daily for one week on the 7th day after infection by a single IM injection of S. typhi strain [1.0 ml (1 × 10^7) colony-forming units]. • Group 14: Rats have injected IP with 4i (1.9 mg/kg) daily for one week. on the 7th day after induction of infection by a single IM injection of S. typhi strain [1.0 ml (1 × 10^7) colony-forming units]. • Group 15: Rats have injected IP with 4i (3.8 mg/kg) daily for one week. on the 7th day after induction of infection by a single IM injection of Salmonella strain [1.0 ml (1 × 10^7) colony-forming units].
Immunohistochemistry (IHC) was performed on paraffin sections and mounted on positively charged slides to detect caspase-3 as an indicator for apoptosis and nuclear factor kappa-light-chain-enhancer of activated B cells (NFKB2) for inflammation by using the avidin-biotin-peroxidase complex (ABC) method. The exact methodology was carried out as previously described in detail.
Caspase-3 and NFKB2 immunostaining were measured as area % in a standard measuring frame in representative five fields for each subject (liver and kidneys) in all groups using 100x magnification via light microscopy transferred to the screen. […]

E. coli = experiment: Agar well diffusion assay; assay type: cell-based; conditions: result in words
Protocol: The agar well diffusion assay was first done to evaluate the antimicrobial activities of the different target compounds (4a–j) against gram-positive bacteria, gram-negative bacteria, and fungi (Table 1A). […] First, the antibacterial activities were tested against S. aureus ATCC 6538, Acientobacter (A. baumanii) ATCC 19606, S. typhi, E. coli, and P. aeruginosa as examples of the most common gram-positive and gram-negative bacteria, in comparison to vancomycin and ceftriaxone as two reference standards. In addition, the antifungal activities were screened against C. albicans, in comparison to amphotericin as a reference standard. […] The antibacterial activities of some tested compounds (4a, 4b, 4h, and 4e) against gram-positive and gram-negative bacteria by agar well diffusion assay are represented in the supplementary data (Figure SI1).
A modification of the agar well diffusion method[55] was done to detect the antimicrobial activities of different compounds (4a–j) against gram-positive bacteria, gram-negative bacteria, and fungi. The work was carried out at the Microbiology Department Faculty of Medicine for Girls Al-Azhar University. By visual comparison to 0.5 McFarland turbidity standards, a suspension of each bacterial strain was prepared. The zones of inhibition were measured in cm.

A. baumanii = experiment: Minimal bactericidal concentration (MBC); assay type: cell-based; conditions: Acinetobacter baumannii
Protocol: (§2) After determining the MIC for the target compounds, the minimal bactericidal concentration (MBC) for each compound that is required to kill each one of the above-mentioned microorganisms was assessed.

C. albicans = experiment: Minimal bactericidal concentration (MBC); assay type: cell-based; conditions: Candida albicans
Protocol: as §2

S. aureus = experiment: H&E histological examination of liver and kidney, S. aureus infected rats; assay type: in vivo
Protocol: as §1
At the end of the experiment, the animals were euthanized through cervical dislocation. After that, the liver and kidney were dissected for histological study. The procedure for histological preparations was described by Bancroft and Stevens[73]. Briefly, liver and kidney tissues were sliced to 3–4 mm thick, fixed in 10% neutral buffered formalin (10% NBF), dehydrated in graded concentrations of ethanol, cleared in xylene, and embedded in paraffin. The paraffin blocks were sectioned with a microtome at (4–6 μm) thickness and dyed with H & E stain to study the general tissue structure.

| Molecule | NFKB2, Kidney (NFKB2; S. typhi infected rats, 1.9 mg/kg IP daily for one week) [area %] | NFKB2, Kidney (NFKB2; S. typhi infected rats, 3.8 mg/kg IP daily for one week) [area %] | NFKB2, Kidney (NFKB2; uninfected rats, 1.9 mg/kg IP daily for one week) [area %] | NFKB2, Kidney (NFKB2; uninfected rats, 3.8 mg/kg IP daily for one week) [area %] | zones of inhibition (inhibitory activity) (E. coli) | MBC (A. baumanii) [µM] | MBC (C. albicans) [µM] | kidney pathological changes (H&E) (S. aureus; high dose (3.8 mg/kg)) | liver pathological changes (H&E) (S. aureus; high dose (3.8 mg/kg)) | kidney pathological changes (H&E) (S. aureus; low dose (1.9 mg/kg)) | liver pathological changes (H&E) (S. aureus; low dose (1.9 mg/kg)) |
| --- | --- | --- | --- | --- | --- | --- | --- | --- | --- | --- | --- |
| COc1ccc(C(=O)NN=Cc2ccc3ccccc3n2)cc1OC [Compound 4i, N'-(quinolin-2-ylmethylene)-3,4-dimethoxybenzohydrazide] | 28.693 ± 0.4494 | 11.91 ± 1.04 | 0.7513 ± 0.0671 | 0.4087 ± 0.08844 | superior inhibitory activity | 186 (≈ 62.5 µg/mL) | 186 (≈ 62.5 µg/mL) |  |  |  |  |
| N'-((3a,7a-dihydro-1H-indol-3-yl)methylene)-3,4-dimethoxybenzohydrazide [Compound 4h] |  |  |  |  |  |  |  | marked improved renal tissue | marked improvement in the pathological changes | improved pathological changes | improved pathological changes |
